{"source": "patent US12203089B2", "about": "“Plants having increased tolerance to herbicides” (BASF SE, priority 2015, dated 2025)", "type_in_all_cases": "in vivo", "key": {"[1]": {"test_system": "Arabidopsis thaliana expressing AtCesA1_wt (SEQ ID 1)", "test": "48-well plate growth inhibition, T2 seeds, tolerance factor", "conditions": "based on IC50 values of growth inhibition, seven to ten days after seeding", "description": "(§1) Transgenic Arabidopsis thaliana plants (T2) are assayed for improved tolerance to azine herbicides like e. g. 6-cyclopentyl-N4-(2,3,4,5,6-pentafluorophenyl)-1,3,5-triazine-2,4-diamine in 48-well plates. Therefore, T2 seeds are surface sterilized by stirring for 5 min in ethanol+water (70+30 by volume), rinsing one time with ethanol+water (70+30 by volume) and two times with sterile, deionized water. The seeds are resuspended in 0.1% agar dissolved in water (w/v) Four to five seeds per well are plated on solid nutrient medium consisting of half-strength murashige skoog nutrient solution, pH 5.8 (Murashige and Skoog (1962) Physiologia Plantarum 15: 473-497). Compounds are dissolved in dimethylsulfoxid (DMSO) and added to the medium prior solidification (final DMSO concentration 0.1%). Multi well plates are incubated in a growth chamber at 22° C., 75% relative humidity and 110 μmol Phot*m^−2*s^−1 with 14:10 h light:dark photoperiod. Growth inhibition is evaluated seven to ten days after seeding in comparison to wild type plants. Tolerance factors are calculated based on IC50 values of growth inhibition of transformed versus non-transformed Arabidopsis plants."}, "[2]": {"test_system": "Arabidopsis thaliana expressing AtCesA3_S983F_S1040L (SEQ ID 3)", "test": "48-well plate growth inhibition, T2 seeds, tolerance factor", "conditions": "based on IC50 values of growth inhibition, seven to ten days after seeding", "description": "as §1"}, "[3]": {"test_system": "Arabidopsis thaliana expressing AtCesA1_G1009D_G1013R (SEQ ID 1)", "test": "48-well plate growth inhibition, T2 seeds, tolerance factor", "conditions": "based on IC50 values of growth inhibition, seven to ten days after seeding", "description": "as §1"}, "[4]": {"test_system": "Arabidopsis thaliana expressing AtCesA3_S983F_S1037F (SEQ ID 3)", "test": "48-well plate growth inhibition, T2 seeds, tolerance factor", "conditions": "based on IC50 values of growth inhibition, seven to ten days after seeding", "description": "as §1"}, "[5]": {"test_system": "Arabidopsis thaliana expressing AtCesA3_wt (SEQ ID 3)", "test": "48-well plate growth inhibition, T2 seeds, tolerance factor", "conditions": "based on IC50 values of growth inhibition, seven to ten days after seeding", "description": "as §1"}, "[6]": {"test_system": "Brassica napus expressing BnaAnng01240D (SEQ ID 20) variant S1041L", "test": "6-well plate injury test, T1 seeds on vermiculite", "conditions": "7 days after treatment", "description": "(§2) Transgenic Brassica napus plants are assayed for improved tolerance to azine herbicides like e. g. 6-cyclopentyl-N4-(2,3,4,5,6-pentafluorophenyl)-1,3,5-triazine-2,4-diamine in 6-well plates. Therefore, 5-6 T1 seeds are sown on vermiculite and watered with half-strength murashige skoog nutrient solution, pH 5.8 (Murashige and Skoog (1962) Physiologia Plantarum 15: 473-497). Compounds are dissolved in dimethylsulfoxid (DMSO) and added to the medium (final DMSO concentration 0.1%). Multi well plates are incubated in a growth chamber at 22° C., 75% relative humidity and 110 μmol Phot*m^−2*s^−1 with 14: 10 h light: dark photoperiod. Growth inhibition is evaluated seven to ten days after seeding in comparison to wild type plants. Plant injury is rated on a scale of 0% to 100%, 0% being no injury and 100% being complete death."}, "Brassica napus wildtype": {"test_system": "Brassica napus wildtype", "test": "6-well plate injury test, seeds on vermiculite", "conditions": "7 days after treatment", "description": "as §2"}, "[7]": {"test_system": "Arabidopsis thaliana expressing AtCesA1_P1010L_G1013R (SEQ ID 1)", "test": "48-well plate growth inhibition, T2 seeds, tolerance factor", "conditions": "based on IC50 values of growth inhibition, seven to ten days after seeding", "description": "as §1"}}}
{"smiles": "Cc1cccc(-n2nc(C(N)=O)nc2-c2ccccc2)c1", "note": "[1-(m-tolyl)-5-phenyl-1,2,4-triazole-3-carboxamide, reference compound]", "values": [{"measurement": "Relative tolerance rate as compared to non-transgenic Arabidopsis plants (non-transgenic = 1.0)", "setting": "[1]", "value": 3}, {"measurement": "Relative tolerance rate as compared to non-transgenic Arabidopsis plants (non-transgenic = 1.0)", "setting": "[2]", "value": 100}, {"measurement": "Relative tolerance rate as compared to non-transgenic Arabidopsis plants (non-transgenic = 1.0)", "setting": "[3]", "value": 25}, {"measurement": "Relative tolerance rate as compared to non-transgenic Arabidopsis plants (non-transgenic = 1.0)", "setting": "[4]", "value": 80}, {"measurement": "Relative tolerance rate as compared to non-transgenic Arabidopsis plants (non-transgenic = 1.0)", "setting": "[5]", "value": 4}]}
{"smiles": "NC(=O)c1nc(-c2ccccc2)n(-c2ccc(Cl)c(COCC(F)(F)C(F)(F)F)c2)n1", "note": "[1-[4-chloro-3-(2,2,3,3,3-pentafluoropropoxymethyl)phenyl]-5-phenyl-1,2,4-triazole-3-carboxamide, reference compound]", "values": [{"measurement": "average phytotox value", "setting": "[6]; BnaAnng01240D S1041L event 1, 10^-4M", "value": 95, "unit": "%"}, {"measurement": "average phytotox value", "setting": "[6]; BnaAnng01240D S1041L event 1, 10^-5M", "value": 85, "unit": "%"}, {"measurement": "average phytotox value", "setting": "[6]; BnaAnng01240D S1041L event 1, 10^-6M", "value": 80, "unit": "%"}, {"measurement": "average phytotox value", "setting": "[6]; BnaAnng01240D S1041L event 1, 10^-7M", "value": 10, "unit": "%"}, {"measurement": "average phytotox value", "setting": "[6]; BnaAnng01240D S1041L event 1, 10^-8M", "value": 0, "unit": "%"}, {"measurement": "average phytotox value", "setting": "[6]; BnaAnng01240D S1041L event 2, 10^-4M", "value": 90, "unit": "%"}, {"measurement": "average phytotox value", "setting": "[6]; BnaAnng01240D S1041L event 2, 10^-5M", "value": 90, "unit": "%"}, {"measurement": "average phytotox value", "setting": "[6]; BnaAnng01240D S1041L event 2, 10^-6M", "value": 90, "unit": "%"}, {"measurement": "average phytotox value", "setting": "[6]; BnaAnng01240D S1041L event 2, 10^-7M", "value": 0, "unit": "%"}, {"measurement": "average phytotox value", "setting": "[6]; BnaAnng01240D S1041L event 2, 10^-8M", "value": 0, "unit": "%"}, {"measurement": "average phytotox value", "setting": "Brassica napus wildtype; 10^-4M", "value": 96, "unit": "%"}, {"measurement": "average phytotox value", "setting": "Brassica napus wildtype; 10^-5M", "value": 93, "unit": "%"}, {"measurement": "average phytotox value", "setting": "Brassica napus wildtype; 10^-6M", "value": 84, "unit": "%"}, {"measurement": "average phytotox value", "setting": "Brassica napus wildtype; 10^-7M", "value": 41, "unit": "%"}, {"measurement": "average phytotox value", "setting": "Brassica napus wildtype; 10^-8M", "value": 4, "unit": "%"}, {"measurement": "Relative tolerance rate as compared to non-transgenic Arabidopsis plants (non-transgenic = 1.0)", "setting": "[7]", "value": 400}]}
